In the kinase profiling compilation of Christmann-Franck et al. (2016):

Columns and labels:
CDK19 (human) = CDK19 (human) (UniProt Q9BWU1); experiment: KINOMEscan competition binding; settings: compound 10.0 µM
WEE2 (human) = WEE2 (human) (UniProt P0C1S8); experiment: KINOMEscan competition binding; settings: compound 10.0 µM
MAP4K2 (human) = MAP4K2 (human) (UniProt Q12851); experiment: KINOMEscan competition binding; settings: compound 10.0 µM
ERBB2 (human) = ERBB2 (human) (UniProt P04626); experiment: KINOMEscan competition binding; settings: compound 10.0 µM
NEK11 (human) = NEK11 (human) (UniProt Q8NG66); experiment: KINOMEscan competition binding; settings: compound 10.0 µM
MARK4 (human) [1] = molecular target: MARK4 (human) (UniProt Q96L34); experiment: KINOMEscan competition binding; settings: compound 10.0 µM
Sequence of MARK4 (human) (Q96L34 whole entry, looked up): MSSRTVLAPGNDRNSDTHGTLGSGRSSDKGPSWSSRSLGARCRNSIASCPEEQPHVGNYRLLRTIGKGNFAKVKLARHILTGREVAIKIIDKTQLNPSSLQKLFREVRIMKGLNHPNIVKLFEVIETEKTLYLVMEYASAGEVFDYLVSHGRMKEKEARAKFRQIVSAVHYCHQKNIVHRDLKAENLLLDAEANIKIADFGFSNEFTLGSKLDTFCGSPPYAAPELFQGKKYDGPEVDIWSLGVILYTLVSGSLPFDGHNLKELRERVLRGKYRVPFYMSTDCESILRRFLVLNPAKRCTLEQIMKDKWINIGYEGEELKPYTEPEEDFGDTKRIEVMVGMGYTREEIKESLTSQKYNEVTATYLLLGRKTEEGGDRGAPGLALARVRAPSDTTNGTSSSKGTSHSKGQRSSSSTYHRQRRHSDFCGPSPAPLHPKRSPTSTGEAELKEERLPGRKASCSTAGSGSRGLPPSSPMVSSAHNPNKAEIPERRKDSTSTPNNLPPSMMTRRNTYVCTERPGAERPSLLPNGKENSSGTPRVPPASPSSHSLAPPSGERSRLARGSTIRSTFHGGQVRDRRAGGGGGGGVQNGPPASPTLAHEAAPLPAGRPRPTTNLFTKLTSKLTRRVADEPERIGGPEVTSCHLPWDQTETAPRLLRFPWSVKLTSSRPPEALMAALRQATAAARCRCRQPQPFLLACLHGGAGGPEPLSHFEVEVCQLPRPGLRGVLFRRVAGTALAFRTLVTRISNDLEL

[2] = tested on: EIF2AK4 KD2 (human), Q9P2K8 [S808G]; experiment: KINOMEscan competition binding; settings: compound 10.0 µM
CDC42BPB (human) = CDC42BPB (human) (UniProt Q9Y5S2); experiment: KINOMEscan competition binding; settings: compound 10.0 µM
NTRK3 (human) = NTRK3 (human) (UniProt Q16288); experiment: KINOMEscan competition binding; settings: compound 10.0 µM
RIOK1 (human) = RIOK1 (human) (UniProt Q9BRS2); experiment: KINOMEscan competition binding; settings: compound 10.0 µM
MKNK1 (human) = MKNK1 (human) (UniProt Q9BUB5); experiment: KINOMEscan competition binding; settings: compound 10.0 µM
MAP3K3 (human) = MAP3K3 (human) (UniProt Q99759); experiment: KINOMEscan competition binding; settings: compound 10.0 µM
RPS6KB1 (human) = RPS6KB1 (human) (UniProt P23443); experiment: KINOMEscan competition binding; settings: compound 10.0 µM
IKBKE (human) = IKBKE (human) (UniProt Q14164); experiment: KINOMEscan competition binding; settings: compound 10.0 µM
[3] = tested on: KIT (human), P10721 [A829P]; experiment: KINOMEscan competition binding; settings: compound 10.0 µM
BRSK2 (human) = BRSK2 (human) (UniProt Q8IWQ3); experiment: KINOMEscan competition binding; settings: compound 10.0 µM
SIK3 (human) = SIK3 (human) (UniProt Q9Y2K2); experiment: KINOMEscan competition binding; settings: compound 10.0 µM
CASK (human) = CASK (human) (UniProt O14936); experiment: KINOMEscan competition binding; settings: compound 10.0 µM
NUAK1 (human) = NUAK1 (human) (UniProt O60285)
Sequence of NUAK1 (human) (O60285 whole entry, looked up): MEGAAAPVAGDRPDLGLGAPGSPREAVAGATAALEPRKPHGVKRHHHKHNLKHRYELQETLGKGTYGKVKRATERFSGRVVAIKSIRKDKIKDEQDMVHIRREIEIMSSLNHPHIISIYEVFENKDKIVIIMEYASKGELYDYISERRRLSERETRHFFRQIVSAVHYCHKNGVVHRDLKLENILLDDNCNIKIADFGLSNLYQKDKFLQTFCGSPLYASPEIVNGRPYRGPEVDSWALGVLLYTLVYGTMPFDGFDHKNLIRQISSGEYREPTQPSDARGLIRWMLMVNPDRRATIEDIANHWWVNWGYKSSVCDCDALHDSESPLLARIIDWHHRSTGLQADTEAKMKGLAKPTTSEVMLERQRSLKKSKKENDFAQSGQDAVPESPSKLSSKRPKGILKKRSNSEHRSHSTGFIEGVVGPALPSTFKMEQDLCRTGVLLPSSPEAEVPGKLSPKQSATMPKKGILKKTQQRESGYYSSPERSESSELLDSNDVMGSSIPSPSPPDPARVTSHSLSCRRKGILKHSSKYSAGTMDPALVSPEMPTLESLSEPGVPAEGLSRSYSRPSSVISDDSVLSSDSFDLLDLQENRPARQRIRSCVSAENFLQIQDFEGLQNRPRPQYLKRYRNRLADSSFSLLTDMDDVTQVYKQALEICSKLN

[4] = tested on: AKT1 (human), P31749 [S473D]
RIPK2 (human) = RIPK2 (human) (UniProt O43353)
HIPK1 (human) = HIPK1 (human) (UniProt Q86Z02)
Sequence of HIPK1 (human) (Q86Z02 whole entry, looked up): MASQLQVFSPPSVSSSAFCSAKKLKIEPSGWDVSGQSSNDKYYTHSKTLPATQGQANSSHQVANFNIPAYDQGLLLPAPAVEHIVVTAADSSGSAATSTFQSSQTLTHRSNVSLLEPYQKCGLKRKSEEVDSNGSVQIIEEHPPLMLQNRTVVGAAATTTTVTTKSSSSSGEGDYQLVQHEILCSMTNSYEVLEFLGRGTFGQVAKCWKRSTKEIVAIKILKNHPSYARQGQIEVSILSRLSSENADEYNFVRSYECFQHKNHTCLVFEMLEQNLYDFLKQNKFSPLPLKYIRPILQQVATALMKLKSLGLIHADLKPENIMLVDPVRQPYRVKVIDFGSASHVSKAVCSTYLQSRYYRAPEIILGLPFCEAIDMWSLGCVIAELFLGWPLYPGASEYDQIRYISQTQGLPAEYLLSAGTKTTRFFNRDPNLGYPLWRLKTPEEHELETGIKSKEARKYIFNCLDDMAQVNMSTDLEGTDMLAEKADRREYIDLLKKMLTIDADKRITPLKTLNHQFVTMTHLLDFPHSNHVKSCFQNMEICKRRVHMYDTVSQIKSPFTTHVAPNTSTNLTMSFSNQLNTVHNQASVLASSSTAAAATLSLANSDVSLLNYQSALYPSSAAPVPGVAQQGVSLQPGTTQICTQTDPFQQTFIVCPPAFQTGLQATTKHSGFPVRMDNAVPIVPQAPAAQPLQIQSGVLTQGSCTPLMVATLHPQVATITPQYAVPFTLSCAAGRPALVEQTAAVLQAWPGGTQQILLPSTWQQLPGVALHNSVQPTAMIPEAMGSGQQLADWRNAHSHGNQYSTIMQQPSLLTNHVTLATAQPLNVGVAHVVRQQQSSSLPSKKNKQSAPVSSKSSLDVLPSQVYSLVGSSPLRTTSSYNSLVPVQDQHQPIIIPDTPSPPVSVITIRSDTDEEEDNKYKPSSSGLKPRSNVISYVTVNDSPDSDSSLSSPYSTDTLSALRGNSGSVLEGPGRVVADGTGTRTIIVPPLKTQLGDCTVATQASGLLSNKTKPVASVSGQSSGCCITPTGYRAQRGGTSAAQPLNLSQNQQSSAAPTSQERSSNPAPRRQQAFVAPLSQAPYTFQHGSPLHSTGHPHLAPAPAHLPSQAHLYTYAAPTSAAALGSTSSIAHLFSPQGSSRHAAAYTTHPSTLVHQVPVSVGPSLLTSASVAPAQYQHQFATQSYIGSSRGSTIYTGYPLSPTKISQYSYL

MARK4 (human) [5] = molecular target: MARK4 (human) (UniProt Q96L34)
MARK2 (human) = MARK2 (human) (UniProt Q7KZI7)
Sequence of MARK2 (human) (Q7KZI7 whole entry, looked up): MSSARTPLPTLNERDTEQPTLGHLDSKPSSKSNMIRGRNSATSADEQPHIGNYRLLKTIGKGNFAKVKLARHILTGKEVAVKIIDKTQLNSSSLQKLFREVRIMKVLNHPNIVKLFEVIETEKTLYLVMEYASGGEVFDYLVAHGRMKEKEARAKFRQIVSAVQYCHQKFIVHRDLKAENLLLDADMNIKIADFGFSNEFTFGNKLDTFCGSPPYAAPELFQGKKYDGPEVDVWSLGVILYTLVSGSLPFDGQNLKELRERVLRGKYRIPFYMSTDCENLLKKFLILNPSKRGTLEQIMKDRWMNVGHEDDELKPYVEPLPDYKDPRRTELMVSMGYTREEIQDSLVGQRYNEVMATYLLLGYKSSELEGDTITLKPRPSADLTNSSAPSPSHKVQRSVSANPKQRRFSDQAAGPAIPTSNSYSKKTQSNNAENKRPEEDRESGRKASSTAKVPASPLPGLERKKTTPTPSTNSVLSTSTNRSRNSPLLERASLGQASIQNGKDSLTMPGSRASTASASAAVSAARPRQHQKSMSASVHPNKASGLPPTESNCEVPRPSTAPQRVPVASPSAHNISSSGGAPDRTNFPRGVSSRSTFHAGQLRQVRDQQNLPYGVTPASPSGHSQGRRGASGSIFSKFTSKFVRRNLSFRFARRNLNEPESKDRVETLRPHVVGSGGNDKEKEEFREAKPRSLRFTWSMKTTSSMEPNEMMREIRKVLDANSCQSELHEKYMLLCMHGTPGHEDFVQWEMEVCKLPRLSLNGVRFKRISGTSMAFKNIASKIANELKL

GCK (human) = GCK (human) (UniProt Q12851)
MAPK10 (human) = MAPK10 (human) (UniProt P53779)
MAP3K11 (human) = MAP3K11 (human) (UniProt Q16584)
HIPK3 (human) = HIPK3 (human) (UniProt Q9H422)
Sequence of HIPK3 (human) (Q9H422 whole entry, looked up): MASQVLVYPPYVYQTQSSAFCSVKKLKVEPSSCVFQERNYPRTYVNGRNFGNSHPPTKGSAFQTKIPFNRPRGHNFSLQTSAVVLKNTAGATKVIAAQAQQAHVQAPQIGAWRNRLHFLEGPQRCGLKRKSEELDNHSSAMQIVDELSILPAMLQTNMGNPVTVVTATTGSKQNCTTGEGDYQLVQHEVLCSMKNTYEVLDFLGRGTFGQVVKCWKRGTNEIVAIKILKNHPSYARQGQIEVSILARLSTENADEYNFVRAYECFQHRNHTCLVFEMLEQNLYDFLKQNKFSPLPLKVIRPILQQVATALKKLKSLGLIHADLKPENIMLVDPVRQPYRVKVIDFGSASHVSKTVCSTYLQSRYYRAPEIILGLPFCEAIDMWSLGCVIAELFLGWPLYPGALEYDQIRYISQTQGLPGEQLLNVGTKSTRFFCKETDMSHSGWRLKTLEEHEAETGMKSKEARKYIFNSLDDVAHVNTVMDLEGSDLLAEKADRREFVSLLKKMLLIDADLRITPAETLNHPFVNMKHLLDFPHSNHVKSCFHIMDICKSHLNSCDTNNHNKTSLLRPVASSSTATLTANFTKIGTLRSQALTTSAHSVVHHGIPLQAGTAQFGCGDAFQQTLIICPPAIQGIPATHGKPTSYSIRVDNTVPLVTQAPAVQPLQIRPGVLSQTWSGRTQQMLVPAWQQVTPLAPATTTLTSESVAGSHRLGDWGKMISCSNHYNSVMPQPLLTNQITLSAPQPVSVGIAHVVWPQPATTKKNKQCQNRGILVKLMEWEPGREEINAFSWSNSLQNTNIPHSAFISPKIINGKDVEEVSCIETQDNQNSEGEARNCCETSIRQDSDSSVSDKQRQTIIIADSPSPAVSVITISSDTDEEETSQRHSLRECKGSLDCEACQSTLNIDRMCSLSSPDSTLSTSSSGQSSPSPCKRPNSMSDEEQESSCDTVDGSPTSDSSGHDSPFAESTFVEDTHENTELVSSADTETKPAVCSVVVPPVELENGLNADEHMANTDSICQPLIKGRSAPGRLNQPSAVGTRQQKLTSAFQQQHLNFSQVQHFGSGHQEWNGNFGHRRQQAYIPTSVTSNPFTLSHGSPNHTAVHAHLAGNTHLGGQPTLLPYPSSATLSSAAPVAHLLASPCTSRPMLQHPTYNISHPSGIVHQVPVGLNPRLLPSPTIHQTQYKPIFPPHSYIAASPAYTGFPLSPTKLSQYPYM

AURKA (human) = AURKA (human) (UniProt O14965)
ERBB4 (human) = ERBB4 (human) (UniProt Q15303)
[6] = tested on: AKT2 (human), P31751 [S474D]
STK11 (human) = STK11 (human) (UniProt Q15831)
MINK1 (human) = MINK1 (human) (UniProt Q8N4C8)
IRAK4 (human) = IRAK4 (human) (UniProt Q9NWZ3)
Sequence of IRAK4 (human) (Q9NWZ3 whole entry, looked up): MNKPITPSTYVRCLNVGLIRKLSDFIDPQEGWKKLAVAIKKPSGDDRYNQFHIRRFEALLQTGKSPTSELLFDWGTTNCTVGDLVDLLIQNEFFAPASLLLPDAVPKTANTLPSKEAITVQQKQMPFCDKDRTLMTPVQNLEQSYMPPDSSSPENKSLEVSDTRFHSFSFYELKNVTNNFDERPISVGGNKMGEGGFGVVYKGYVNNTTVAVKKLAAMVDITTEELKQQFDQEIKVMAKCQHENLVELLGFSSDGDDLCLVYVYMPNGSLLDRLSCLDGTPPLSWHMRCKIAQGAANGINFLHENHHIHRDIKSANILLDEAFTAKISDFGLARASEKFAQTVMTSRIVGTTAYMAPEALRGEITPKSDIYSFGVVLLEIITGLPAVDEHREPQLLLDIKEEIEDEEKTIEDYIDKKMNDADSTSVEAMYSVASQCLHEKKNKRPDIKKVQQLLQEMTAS

BRSK1 (human) = BRSK1 (human) (UniProt Q8TDC3); settings: compound 10.0 µM
MAPKAPK3 (human) = MAPKAPK3 (human) (UniProt Q16644)

## COC(=O)Nc1ccc(-c2nc(N3CCOCC3)c3cnn(C4CCN(C(=O)OC)CC4)c3n2)cc1
CDK19 (human)
  per cent of control: 98%
WEE2 (human)
  kinase still bound, per cent of control: 95%
MAP4K2 (human)
  kinase still bound, per cent of control: 100%
ERBB2 (human)
  kinase still bound, per cent of control: 100%
NEK11 (human)
  kinase still bound, per cent of control: 85%
MARK4 (human) [1]
  kinase still bound, per cent of control: 96%
[2]
  kinase still bound, per cent of control: 88%
CDC42BPB (human)
  kinase still bound, per cent of control: 96%
NTRK3 (human)
  kinase still bound, per cent of control: 100%
RIOK1 (human)
  kinase still bound, per cent of control: 92%
MKNK1 (human)
  kinase still bound, per cent of control: 37%
MAP3K3 (human)
  kinase still bound, per cent of control: 81%
RPS6KB1 (human)
  kinase still bound, per cent of control: 86%
IKBKE (human)
  kinase still bound, per cent of control: 81%
[3]
  kinase still bound, per cent of control: 91%
BRSK2 (human)
  kinase still bound, per cent of control: 100%
SIK3 (human)
  kinase still bound, per cent of control: 83%
CASK (human)
  kinase still bound, per cent of control: 100%
NUAK1 (human); compound 1.0 µM
  per cent of control: 94%
NUAK1 (human); compound 10.0 µM
  per cent of control: 82%
[4]; compound 1.0 µM
  per cent of control: 89%
[4]; compound 10.0 µM
  per cent of control: 87%
RIPK2 (human); compound 1.0 µM
  per cent of control: 94%
RIPK2 (human); compound 10.0 µM
  per cent of control: 72%
HIPK1 (human); compound 1.0 µM
  per cent of control: 85%
HIPK1 (human); compound 10.0 µM
  per cent of control: 89%
MARK4 (human) [5]; compound 1.0 µM
  per cent of control: 91%
MARK4 (human) [5]; compound 10.0 µM
  per cent of control: 109%
MARK2 (human); compound 1.0 µM
  per cent of control: 96%
MARK2 (human); compound 10.0 µM
  per cent of control: 118%
GCK (human); compound 1.0 µM
  per cent of control: 94%
GCK (human); compound 10.0 µM
  per cent of control: 105%
MAPK10 (human); compound 1.0 µM
  per cent of control: 94%
MAPK10 (human); compound 10.0 µM
  per cent of control: 106%
MAP3K11 (human); compound 1.0 µM
  per cent of control: 92%
MAP3K11 (human); compound 10.0 µM
  per cent of control: 106%
HIPK3 (human); compound 1.0 µM
  per cent of control: 112%
HIPK3 (human); compound 10.0 µM
  per cent of control: 85%
AURKA (human); compound 1.0 µM
  per cent of control: 90%
AURKA (human); compound 10.0 µM
  per cent of control: 63%
ERBB4 (human); compound 1.0 µM
  per cent of control: 91%
ERBB4 (human); compound 10.0 µM
  per cent of control: 108%
[6]; compound 1.0 µM
  per cent of control: 102%
[6]; compound 10.0 µM
  per cent of control: 89%
STK11 (human); compound 1.0 µM
  per cent of control: 102%
STK11 (human); compound 10.0 µM
  per cent of control: 112%
MINK1 (human); compound 1.0 µM
  per cent of control: 100%
MINK1 (human); compound 10.0 µM
  per cent of control: 100%
IRAK4 (human); compound 1.0 µM
  per cent of control: 107%
IRAK4 (human); compound 10.0 µM
  per cent of control: 114%
BRSK1 (human)
  per cent of control: 94%
MAPKAPK3 (human); compound 1.0 µM
  per cent of control: 109%
MAPKAPK3 (human); compound 10.0 µM
  per cent of control: 101%
